Where “and” joins values, the source holds several entries; their conditions need not be identical. Equal entries are not always repeated. Entries after “also recorded” stand apart in the source; their conditions may differ.
Legend:
T4 DNA ligase [1] = target: T1, T4 DNA ligase (Enterobacteria phage T4, UniProt P00970); assay: Ligase activity titer assay with blunt-ended PhiX174-HaeIII fragments, agarose gel; format: biochemical; design: purchased NEB (New England Biolabs), Ipswich, Mass. #M0202; details: 6% 1,2-PrD, two-fold ligase dilution series, 30 min 25 C
T1 sequence (P00970 1-487): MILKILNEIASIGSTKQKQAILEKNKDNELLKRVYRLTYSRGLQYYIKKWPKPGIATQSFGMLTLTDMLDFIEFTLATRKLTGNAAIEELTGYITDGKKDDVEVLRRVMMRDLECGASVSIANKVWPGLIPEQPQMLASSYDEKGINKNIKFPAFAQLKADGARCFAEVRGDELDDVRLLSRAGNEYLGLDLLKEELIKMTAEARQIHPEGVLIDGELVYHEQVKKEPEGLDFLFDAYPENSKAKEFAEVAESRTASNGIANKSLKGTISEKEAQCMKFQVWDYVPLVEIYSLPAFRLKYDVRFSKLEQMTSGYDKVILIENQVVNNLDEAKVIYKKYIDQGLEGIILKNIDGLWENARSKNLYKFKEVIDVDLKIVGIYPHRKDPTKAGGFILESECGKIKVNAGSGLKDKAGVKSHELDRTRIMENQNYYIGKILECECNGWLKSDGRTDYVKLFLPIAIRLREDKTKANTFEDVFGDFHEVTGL
Procedure: The ligase activity in the absence and presence of 6% 1,2-PrD was determined in a two-fold ligase dilution series. The symbol “*” denotes equivalent levels of ligation, showing that ligation efficiency was enhanced 4-fold. The first and last lanes contain DNA markers.
The effectiveness of the ligation enhancer was also established for blunt-ended DNA as follows: 20 μl reactions were set up containing two-fold serial dilutions of 2000 units of T4 DNA ligase, 200 ng PhiX174-HaeIII digest (NEB, Ipswich, Mass., #N3026), and regular ligase buffer with 200 ng phiX174-HaeIII blunt-ended fragments per 20 μl, in the absence and presence of 6% 1,2-PrD. The reactions were incubated for 30 min at room temperature (25° C.) followed by electrophoresis on a 1% agarose gel. 1,2-PrD enhanced T4 DNA ligase activity 4-fold in this titer reaction.

T4 DNA ligase [2] = target: T1, T4 DNA ligase; assay: Cloning of a 500 bp amplicon made by Taq DNA polymerase into a T-tailed vector (ligation test system a); format: biochemical; design: purchased NEB (New England Biolabs), Ipswich, Mass. #M0202; details: enhancer at 12%; no addition = 1-fold; single-base overhangs
Procedure: All were tested side-by-side using two ligation test systems which were: (a) cloning of a 500 bp amplicon made by Taq DNA polymerase into a T-tailed vector; and (b) recircularization of an AhdI-linearized plasmid. Both ligation test systems used DNA with single-base overhangs.
The reaction mixtures contained DNA at 50-100 ng and 1,2-PrD at different concentrations. 1 μl of regular concentration (NEB, Ipswich, Mass., #M0202; 400 units) or 1 μl of high concentration T4 DNA ligase (NEB, Ipswich, Mass., #M0202; 2000 units) was then added to a final volume of 21 μl in 1×T4 DNA Ligase Buffer (NEB, Ipwich, Mass., #B0202) or 1× Quick Ligase™ Buffer (NEB, Ipswich, Mass., #B2200).
A standard assay uses 100 ng DNA, 1 μl of T4 DNA ligase, 21 μl 1×T4 DNA ligase buffer and varying amounts of enhancer.
Ligation reactions were incubated for 10 min at room temperature (25° C.) unless otherwise stated, then placed on ice for 2 min. In some experiments the ligase was heat-killed by incubation at 65° C. for 20 min. The ligation reactions were analyzed by 1% agarose gel electrophoresis to identify DNA species and determine the efficiency of […].
A volume of 2 μl from each ligation reaction was incubated with 50 μl of chemically competent (NEB, Ipswich, Mass., #C2987I) or electrocompetent (NEB, Ipswich, Mass., #C2989K) DH5 alpha E. coli cells.
(§1) For chemically competent cell transformations, the cell-DNA mixture was incubated on ice for 30 min, heat-shocked at 42° C. for 30 sec, then returned to ice for 5 min. A volume of 950 μl SOC medium (2% vegetable peptone or Tryptone, 0.5% yeast extract, 10 mM NaCl, 2.5 mM KCl, 10 mM MgCl2, 10 mM MgSO4 and 20 mM glucose) was added to the cell-DNA mixture, followed by a one hr 37° C. outgrowth period with agitation. A volume of 25-50 μl of appropriately diluted cells in SOC was spread onto Rich Agar plates (composition per liter: 10 g soy peptone, 5 g yeast extract, 10 g NaCl, 1 g MgCl2-6H2O, 1 g dextrose, 15 grams agar) supplemented with 100 μg/ml ampicillin. Plates were inverted and incubated for 16 hrs at 37° C., followed by quantification of total colony numbers.

T4 DNA ligase [3] = target: T1, T4 DNA ligase; assay: Recircularization of AhdI-linearized pUC19 and transformation of NEB Turbo cells (FIGS. 1A-C); format: biochemical; design: purchased NEB (New England Biolabs), Ipswich, Mass. #M0202; details: 0, 4%, 6% 1,2-PrD, 400 U T4 DNA ligase, 20 min 16 C
Excerpt: FIGS. 1A-C show the results of recircularization through ligation of double-stranded linearized plasmid DNA in the presence of increasing amounts of 1,2-PrD. The ligated DNA is subsequently transformed into competent E. coli cells, followed by plating on agar ampicillin selection plates. The extent of successful transformation is illustrated by the numbers of colonies on the plate.
Linearization of the pUC19 plasmid was achieved using AhdI to generate single-base overhangs as described in FIG. 3A. Ligation of the cleaved DNA was performed in a 20 μl ligation reaction containing 100 ng of DNA in the presence and absence of 1,2-PrD and 400 U of T4 DNA ligase was incubated for 20 min at 16° C., then heated to 65° C. for 45 min to inactivate the ligase. Transformation of cells with the ligated DNA was performed using chemically competent NEB Turbo™ cells (NEB, Ipswich, Mass., #C2984H) as described in Example 1 using 2 μl of the ligation mix (containing 10 ng DNA) with an outgrowth period of 20 min.

[4] = system: chemically competent DH5 alpha E. coli cells; assay: Mock ligation with supercoiled pUC19 DNA and transformation (control); format: cell-based; details: 12% 1,2-PrD; for Transformants from 2 pg SC DNA: supercoiled pUC19
Procedure: as §1
Mock DNA ligations were set up with 1 ng of supercoiled pUC19 DNA in 1× regular DNA ligase buffer in the presence and absence of 2000 units T4 DNA ligase and with or without 12% 1,2-PrD. Ligation reactions were conducted using the standard protocol in Example 1 and transformations with chemically competent DH5 alpha E. coli cells. 40 μl of a 1:20 dilution of the 1 ml SOC outgrowth containing 2 pg supercoiled DNA was plated onto agarose plates and incubated overnight.
This illustrates the enhancement is at the ligation step and not the transformation step.

In the case of `CC(O)CO` (stereo not drawn) [1,2-PrD, 1,2-propanediol], the “Enhancement of T4 DNA ligase activity (ligation efficiency) in titer reaction” value (T4 DNA ligase [1]) is reported as 4 fold, the “Cloning Enhancement” value (T4 DNA ligase [2]) is reported as 14-fold and the “Transformation levels (number of colonies)” value (T4 DNA ligase [3]) is reported as “the greater the number of transformants; also recorded: increased transformation levels”. The “Transformants from 2 pg SC DNA” value ([4]; 2000 U T4 DNA ligase, duplicate reactions) was 82 and 73, the “Transformants from 2 pg SC DNA” value ([4]; T4 DNA ligase none) was 126 and the “Effect on transformation with supercoiled pUC19 DNA” value ([4]; with or without T4 DNA ligase) was “not statistically altered; also recorded: does not affect nor interfere with transformation”.
